`Clc1ccccc1-c1ccccc1`: the boiling point is 274 °C, the log10 Henry constant (atm·m³/mol) was -3.13, the log10 Koc (L/kg) came to 3.47 and the log10 vapour pressure (mmHg) is -2.86. Moreover, the melting point was 34 °C.

With `CN(C)N=O`, the boiling point was 154 °C, the log10 vapour pressure (mmHg) stood at 0.431 and the ready biodegradability result is “not readily biodegradable”.

`O=C(O)CNCP(=O)(O)O` gave a log10 Koc (L/kg) of 3.32 and a melting point of 190 °C.

Regarding `NC(=O)c1c(Cl)cccc1Cl`, the log10 Koc (L/kg) worked out at 0.53, the melting point is 198 °C and the ready biodegradability result is listed as “not readily biodegradable”.

In turn, `C=CC[Si](Cl)(Cl)CC=C` showed a log10 vapour pressure (mmHg) of 0.445.

Compound `CC(=O)C(C)=O` returned a boiling point of 88 °C, a log10 Henry constant (atm·m³/mol) of -4.88, a log10 vapour pressure (mmHg) of 1.75 and a melting point of -1.2 °C.

`CN(C)C(O)=Nc1ccc(-n2nc(C(C)(C)C)oc2=O)c(Cl)c1` returned a melting point of 193 °C.

For the compound `CC(Cl)CBr` (stereo unspecified), the boiling point was found to be 118 °C.

`Cc1ccccc1Cc1ccccc1`: the boiling point worked out at 280 °C and the melting point stood at 6.6 °C.

Compound `CCNNCC` came in with a boiling point of 85.5 °C and a log10 Koc (L/kg) of 1.18.

On to `CN(C)C(=O)Oc1cccc([N+](C)(C)C)c1.COS(=O)(=O)[O-]`, for which the melting point turned out to be 143 °C.

As to `CN1CC[C@]23C(=O)C[C@H]4C(=CCO[C@H]5CC(=O)N(c6c(O)cccc62)[C@H]3[C@H]54)C1`, the melting point came out at 282 °C.

`CNC(=O)Oc1cccc(C(C)C)c1`: the melting point was 73 °C.

Regarding `Nc1ccc2c(S(=O)(=O)O)cccc2c1S(=O)(=O)O`, the ready biodegradability result was “not readily biodegradable”.

Take `CNC(=O)Oc1ccc(SC)c(C)c1`: the melting point was found to be 118 °C.

As to `Fc1ccc2ccccc2c1`, the boiling point stood at 212 °C and the melting point is 61 °C.

`FC(F)OC(Cl)C(F)(F)F` (stereo unspecified) displayed a boiling point of 48.5 °C, a log10 Henry constant (atm·m³/mol) of -1.54 and a melting point of 48.5 °C.

`Cc1ccc(O)c(I)c1` came in with a melting point of 35 °C.

The compound `Clc1ccc(Br)s1` yielded a melting point of -20 °C.

For the compound `N#Cc1c(F)c(F)cc(F)c1F`, the melting point was 34 °C.

For the compound `C=CCC(C(=O)OCC)C(=O)OCC`, the boiling point turned out to be 222 °C.

As for `Oc1ccc(Cl)cc1O`, the melting point amounted to 90.5 °C and the ready biodegradability entry was “not readily biodegradable”.

Consider `BrCC(Br)c1ccccc1` (stereo unspecified), for which the log10 vapour pressure (mmHg) was -1.97 and the melting point is 75 °C.

`CC(C)(C)c1ccc(OC(=O)c2ccccc2O)cc1` displayed a melting point of 62 °C.

`C=C(C)C1CCC=C(C)C1` (stereo unspecified) showed a boiling point of 176 °C.

On to `C[C@@H]1C[C@H](C)CC(C)(C)C1`, for which the boiling point was found to be 152 °C.

With `CC(C)CCC(O)C(C)C` (stereo unspecified), the boiling point was 175 °C.

The compound `COc1ccccc1N=Nc1c(O)ccc2ccccc12` had a melting point of 183 °C.

`CCCCCC[N+](=O)[O-]` came in with a boiling point of 193 °C.

`Nc1ccc(S(=O)(=O)c2ccc(NC(=O)CCC(=O)O)cc2)cc1` gave a melting point of 157 °C.

`C=CCSSSC`: the log10 vapour pressure (mmHg) is -1.3.

Turning to `Fc1ccc(Cl)cc1`, the boiling point was found to be 130 °C and the melting point is -26.8 °C.

In the case of `CNCCCN`, the ready biodegradability result was “readily biodegradable”.

For `CCCCOCCOCCOC(=O)CCCCC(=O)OCCOCCOCCCC`, the melting point was -47 °C and the ready biodegradability entry is “readily biodegradable”.

The compound `O=C[O-].[NH4+]` showed a melting point of 116 °C.

`CCOc1ccc(C(N)=O)cc1` returned a melting point of 209 °C.

`CCOCc1ccco1`: the boiling point came out at 149 °C.

With `CCCCCCCCCCCCCCCCCCCl`, the boiling point is 348 °C, the log10 vapour pressure (mmHg) is -4.77 and the melting point came out at 28.6 °C.

As to `C(=C\c1ccccc1)/c1ccccc1`, the boiling point is 307 °C, the log10 Koa amounted to 7.48 and the log10 vapour pressure (mmHg) was -2.61.

The compound `CCOC(=O)C(Cl)(Cl)Cl` registered a boiling point of 168 °C and a log10 vapour pressure (mmHg) of 0.581.

For the origin of these results see the OPERA property sets (Mansouri et al. 2018).
